{"source": "patent US6359005B1", "about": "“Method for the treatment of mania and bipolar disorder” (Warner-Lambert Company, priority 1998, dated 2002)", "key": {"[1]": {"system": "healthy subjects and patients suffering from anxiety", "test": "Studies of healthy subjects and patients suffering from anxiety", "assay_type": "in vivo, human", "description": "This is a novel use for pregabalin which would not be obvious to a medical practitioner of ordinary skill.\nThis effect will be beneficial in acute mania and will also lead to reducing the risk for onset of a new episode of mania in a predisposed individual. Thus, the prophylactic use of pregabalin for bipolar disorder is also taught."}, "Metabolism in the body": {"test": "Metabolism in the body", "details": "in vivo"}, "[2]": {"test": "Toxicity / tolerability of the compound", "details": "in vivo"}}, "data": [{"compound": "CC(C)C[C@H](CN)CC(=O)O", "note": "[Pregabalin, (S)-3-(aminomethyl)-5-methylhexanoic acid]", "values": [{"measurement": "Effects noted in subjects (sedation, calming)", "setting": "[1]; healthy subjects and patients suffering from anxiety", "result": "sedative and calming effects"}, {"measurement": "Effect on sleep", "setting": "[1]; human, in vivo", "result": "enhance sleep"}, {"measurement": "Metabolism in the body", "setting": "Metabolism in the body", "result": "not metabolized in the body"}, {"measurement": "Tolerability", "setting": "[2]", "result": "well-tolerated"}]}]}
